Experimental data published in US20100203110A1, “Therapeutics for Cancer Using 3-Bromopyruvate and Other Selective Inhibitors of ATP Production” (The Johns Hopkins University, priority 2006, published 2010).
“Also recorded” adds a separate entry of the source.

Key:
[1] = test system: mitochondrial respiration of VX2 tumor mitochondria; assay: Mitochondrial respiration (oxygen consumption, Clark electrode); format: biochemical, rabbit; settings: 1.2 mM; basal (succinate) and ADP stimulated rate
Procedure: The freshly isolated liver or VX2 tumor tissues (15-20 g wet weight) was rinsed in 3 volumes of H-medium (210 mM D-mannitol, 70 mM sucrose, 2 mM Hepes, and 0.05% bovine albumin, pH 7.4) at 4° C. and minced with a razor blade as finely as possible. A 30% (V/V) suspension was made using ice-cold H-medium in a Potter-Elvehjem glass homogenizer (55 ml capacity), and homogenization was achieved by applying 4 complete up and down strokes through the suspension with a rotating (˜400 rpm), serrated, teflon pestle attached to a motor. To remove cell debris and nuclei, the resultant homogenate was diluted to twice the initial volume and centrifuged at 630×g for 8 minutes at 4° C. in a Sorvall RC-2B centrifuge using a GSA rotor. The supernatant was removed and then centrifuged at 6,800 g for 15 min under the same conditions. The resultant supernatant was saved and referred to here as the cytosolic faction. […]
Oxygen consumption rates were measured polarographically using a Clark oxygen electrode inserted into a 2.5 ml chamber equipped with a magnetic stirrer. […] The loss of oxygen was monitored in a 2.1 ml system at 25° C. containing 1 mg mitochondria, 0.5 mM EDTA, 2.0 mM Hepes, 220 mM D-mannitol, 70 mM sucrose, 2.5 mM KPi, 2.6 mM MgCl2, and 0.5 mg/ml bovine albumin, and, where indicated, 7.8 mM succinate (respiratory substrate), and 0.24 mM ADP (ATP synthesis substrate). […]

AS-30D hepatoma cells = assay: Killing of AS-30D hepatoma cells (trypan blue); format: cell-based, rat; settings: 5 mM, 12 h
Procedure: AS-30D hepatoma cells grown in the peritoneal cavity of Sprague Dawley female rats (see Materials) were adapted to grow in tissue culture in Dulbecco's modified Eagle's medium containing 10% fetal bovine serum. Cells were maintained at 37° C. in a humidified atmosphere containing 5% CO2, and counted in a Neubauer chamber after trypan blue dye addition (cell/dye volume=1/1) by visualization under a Nikon inverted microscope.
The studies described above using the VX2 tumor model for liver cancer predict that 2DOG and 3BrPA may have the capacity to kill hepatoma cells expressing the high glycolytic/high hexokinase phenotype. […] Cell killing was assessed in these experiments by counting those cells in which trypan blue had entered.

[2] = test system: liver implanted VX2 tumors; assay: Single direct intraarterial bolus injection into liver implanted VX2 tumors, histology; format: in vivo, rabbit
Description: The rabbit VX2 tumor was selected for implantation in the liver because of the similarities of its blood supply to that of human hepatomas. Other attributes of this tumor include rapid tumor growth, development of a sizable tumor that can be readily identified by x-ray imaging (fluoroscopy), and a biochemical phenotype characteristic of advanced stage tumors, i.e., high glycolysis and elevated levels of mitochondrial bound hexokinase. In addition, the rabbit is large enough that selective manipulation of catheters in the hepatic artery from the common femoral artery for delivery of agents is possible. Adult New Zealand white rabbits (32 total, Robinson Services, Inc.) weighing 3.5-4.2 kg were used. Studies with these animals were approved by the Johns Hopkins University Animal Care and Use Committee and carried out according to their guidelines. For successful implantation of the VX2 tumor into the liver, it was first grown for 2 weeks on the hind leg of a carrier rabbit. Each carrier rabbit was used to supply tumor cells for implantation into the left lobe of the liver of 2 separate rabbits. All animals, carriers and recipients, were anesthetized with a mixture of acepromazine (2.5 mg/kg) and ketamine hydrochloride (44 mg/kg) administered intramuscularly. Intravenous access was gained via a marginal ear vein and sodium pentothal was given intravenously to maintain anesthesia. The VX2 tumor was then excised from the carrier rabbit and placed in Hanks solution. Chunks of the tumor were minced in the same solution. Then, the abdomens of the recipient rabbits were shaved and prepped with betadine after which a midline subxyphoid incision was made. The anterior surface of the liver was exposed and tumor cells (0.1-0.2 ml) from the minced donor tumor were directly implanted onto the left lobe of the liver using the outer cannula of a 21-gauge angiocatheter. This method allows the growth of a single solitary, well-demarcated tumor in the liver of each recipient rabbit. The abdomen was closed in 2 layers. Proper aseptic technique was rigorously observed during each implantation. After surgery, animals were returned to their cages, kept warm with blankets, and monitored in the animal laboratory under the direct supervision of a physician or a technician until they recovered from anesthesia. […] The tumors were allowed to grow for another 14 days at which time they reached an ellipsoidal shape with dimension of approximately 1.5×1.8×2.5 cm.
The solutions of 3-bromopyruvate (3-BrPA, Sigma Chemical Co., St. Louis, Mo.) were prepared in phosphate-buffered saline (PBS). After adjusting the pH to 7.0 with NaOH the solutions were sterilized via Millipore's Millexâ GV 0.22 mm filter unit and used immediately. Freshly made solutions were used in all studies reported here.
Administration of anesthesia, intravenous access and sodium pentothal anesthesia were carried out as described in Example 12. Transcatheter hepatic artery injection of 3-BrPA was performed under fluoroscopy. The animals were brought to the angiography suite and intubated using a size 3.0 mm endotracheal tube (Mallinkrodt Medical, St. Louis, Mo.) but not ventilated. Surgical cut-down was performed to gain access into the right common femoral artery, after which a 3 French sheath (Cook Inc., Bloomington, Ind.) was placed. A specially manufactured 2 French catheter with a tip in the shape of a hockey-stick (JB1 catheter, Cook Inc., Bloomington, Ind.) was manipulated into the celiac axis after which a celiac arteriogram was performed in order to delineate the blood supply to the liver and confirm the location of the tumor. The tumor could readily be visualized as a region of hypervascular blush located on the left side of the liver near the gastric fundus. The left hepatic artery, which usually provides most of the blood flow to the tumor, was selectively catheterized via the common hepatic artery. […]

VX2 = assay: Caspase-3 activity, VX2; format: cell-based, rabbit; settings: 1 mM for 3 hour
Procedure: Caspase-3 activity and reduced cell viability was also measured in cell lines (HepG2, THLE-2, and VX2 cell lines) following 3-bromopyruvate treatment (1 mM for 3 hour) (FIG. 6A). Caspase-3 activity increased in each cell line following treatment and cell viability decreased following treatment. An increase in caspase-3 activity indicated the mechanism of cell death is apoptotic. FIGS. 6 B and C show cell viability is reduced in each cell line with increasing 3-bromopyruvate concentration after 1 and 3 hours of treatment.

[3] = single intraarterial injection, 4 days

O=C(O)C(=O)CBr [3-bromopyruvate]
inhibition of mitochondrial respiration [1]: completely inhibits
cell killing (AS-30D hepatoma cells): all cells
damage to 9 major tissues ([2]; 4 days after single intraarterial injection): In no case was there evidence for damage
damage to portal veins, sinusoids, bile ducts and arteriolar complexes ([2]; much higher concentrations (5 mM), intraarterial): only apparent damage occurring occasionally in the peribiliary arteriolar complexes
necrosis (non-viable cells) in tumor sections outside the central core ([2]; single IA bolus 25 ml 0.5 mM, 4 days): ~100%
total number of viable cells in liver implanted tumors, lowest reached ([2]; single injection): 10%
maximal number of non-viable cells observed in any one experiment ([2]; single intraarterial injection): 90%
total number of non-viable cells in the tumor population [2, 3]: 84±5%
viable cells in the entire tumor population [2, 3]: 16±5%
viability / damage of surrounding liver tissue ([2]; single intraarterial injection, 4 days, listed as 3-BrPA): no damage; also recorded: remained completely viable
Caspase-3 activity (VX2): increased
